Patent publication US20180305424A1, “Methods of Inducibly Targeting Chromatin Effectors and Compositions for Use in the Same” (The Board of Trustees of the Leland Stanford Junior …, priority 2015, published 2018)
Where “and” joins values, the source holds several entries; their conditions need not be identical. Identical values can stand only once.

Key:
Format in all cases: cell-based, mouse
[1] = tested on: DNA accessibility at the Oct4 locus in CiA Oct4 MEF cells; assay: Transposase (Tn5) chromatin accessibility assay after FK1012 addition; settings: post-addition of FK1012 (removal of the BAF complex)
Experimental: Following various recruitment conditions, 5×10̂4 CiA Oct4 MEF cells were harvested, washed once in PBS, once in RSB buffer (10 mM Tris-HCl, pH 7.4, 10 mM NaCl, 3 mM MgCl2), and centrifuged at 500×g for 5 minutes at 4 degrees C. Cells were then lysed in lysis buffer (500 ul RSB buffer+5 ul 10% NP-40) for 5 minutes on ice, spun at 500×g for 5 minutes, resuspended in Tagment DNA/Enzyme Buffer Mix (Illumina Nextera Sample Preparation Kit, Cat. # FC-121-1030), and incubated for 30 minutes at 37° C. Following Tn5 transposase enzyme reaction, DNA was purified using Quiagen MinElute PCR Purification Kit (Cat #28004). Transposed DNA fragments were amplified via qPCR to the appropriate number of cycles and library was purified using a Quiagen PCR Cleanup Kit eluted in 20 ul of elution buffer (10 mM Tris Buffer, pH 8.0). CiA locus-specific qPCR was performed using primers in Supplemental Table 2.

[2] = tested on: BAF complex tethering to the Oct4 locus in CiA MEF cells; assay: OFF/washout experiments: FK1012 competition of rapamycin-tethered BAF complexes, ChIP-qPCR
Experimental: Briefly, adherent CiA MEF cells were treated with 3 nM (final) rapamycin (sirolimus; Sellekchem #S1039) (ON experiments) or 3 nM rapamycin followed by 30 nM FK1012 (OFF/washout experiments) for prescribed times (2.5 minutes-24 hours). For acute time points, cells were harvested rapidly by washing media out once with PBS, scraping cells off plates with a cell scraper, resuspending in CiA fix buffer, and formaldehyde fixing for subsequent ChIP analyses.
Briefly, for rapid time course assays, adherent CiA MEF cells were washed once in PBS, scraped off plates into fix buffer (50 mM HEPES, 1 mM EDTA, 0.5 mM EGTA, and 100 mM NaCl), resuspended, and immediately formaldehyde fixed. After cross-linking, cells (7-10×10̂6) were washed and sonicated for 13.5 minutes using a Covaris E220 Sonicator (Covaris, Inc., Woburn, Mass.). Chromatin input was reverse crosslinked and evaluated for shearing efficiency and 100-150 μg of chromatin stock was used per immunoprecipitation reaction. […]
(§1) CiA knock-in locus-specific primers were generated with plus (+) and minus (−) direction distances calculated from the middle of the ZFHD1 recruitment domain as well as […] distances calculated from the Oct4 transcription start site (TSS). Briefly, enrichment (bound over input) averages and standard deviations were calculated over n=5 repeat experiments for each primer set. […]

[3] = tested on: BAF complex recruitment to the modified Oct4 (Pou5f1) locus in CiA MEF cells; assay: Recruitment assay (ON): rapamycin-induced BAF complex recruitment to the CiA Oct4 locus, ChIP-qPCR; settings: 24 hours of rapamycin treatment (3 nM); Frb-V5-tagged BAF subunit fusions; CiA MEFs
Source text: CiA mouse embryonic fibroblasts (MEFs) containing a modified Oct4 promoter (with 12×ZFHD1 and 6×GAL4 sites upstream of the promoter) were generated, cultured and maintained as previously described (Hathaway et al., “Dynamics and memory of heterochromatin in living cells,” Cell (2012) 149:1447-1460). Briefly, lentiviral delivery constructs bearing an EF1-alpha promoter and either puromycin or blasticidin resistance were generated to contain the constructs described here (FIG. 1a). To generate recruitable forms of BAF complexes, individual subunits (SS18, BRG, BAF47, BAF57) were N-terminally fused to Frb-V5. […]
Briefly, for rapid time course assays, adherent CiA MEF cells were washed once in PBS, scraped off plates into fix buffer (50 mM HEPES, 1 mM EDTA, 0.5 mM EGTA, and 100 mM NaCl), resuspended, and immediately formaldehyde fixed. […] Chromatin input was reverse crosslinked and evaluated for shearing efficiency and 100-150 μg of chromatin stock was used per immunoprecipitation reaction. […]
as §1

## FK1012
[1]
  Time at which inaccessible chromatin began to reform: 2.5 to 5 h
[2]; 3 nM rapamycin followed by 30 nM FK1012
  Decrease in BAF complex tethering to the Oct4 locus, FK1012 addition versus rapamycin washout (media change): more rapid, robust decreases
[2]; post-addition of FK1012, paralleled by reappearance of H3K27Me3 and H2AUb1
  Time at which PRC2 (Ezh2) and PRC1 (Ring1B) began to reappear: ~2 h

## CO[C@H]1C[C@@H]2CC[C@@H](C)[C@@](O)(O2)C(=O)C(=O)N2CCCC[C@H]2C(=O)O[C@H]([C@H](C)C[C@@H]2CC[C@@H](O)[C@H](OC)C2)CC(=O)[C@H](C)/C=C(\C)[C@@H](O)[C@@H](OC)C(=O)[C@H](C)C[C@H](C)/C=C/C=C/C=C/1C [rapamycin]
[3]
  BAF complex recruitment (fold enrichment over baseline by ChIP-qPCR): 20-40 fold and 40-60 fold
